According to patent US20060040871A1, “Bacterial transforming agent” (priority 2003, published 2006):
Like-named read-outs stand apart in the source and are kept apart here.

Legend:
MRSA [1] = test: Screening on Isosensitest agar with incorporated BTA and 10 μg methicillin discs; type: cell-based, Staphylococcus aureus; settings: VRE and MRSA
Description: To find substances related to GBE that might have increased potency, various substances, including those with additional glycine moieties and benzylates, have been screened. Screening was carried out using Isosensitest agar (Oxoid, UK) into which various levels of potential BTAs were incorporated at levels between 0.01 and 1.0%. The agar with incorporated BTA was then used in the manner of a standard antibiotic sensitivity test using 10 μg methicillin discs. The test organism was inoculated onto the agar surface at a concentration suitable to achieve confluent growth after 18 hours incubation at 30° C. After incubation, zone diameters were compared with that achieved by the control plate (Isosensitest alone) for each test organism.

[2] = tested on: vancomycin- and gentamicin-resistant Enterococcus faecium; test: microbe, parasite or virus in culture; type: cell-based; settings: for MIC of vancomycin: GBE 0.02M
Text: The agents of the present invention are not limited to the reversal of resistance in Staphylococcus. The test strains in Table 5 are patient-isolates of vancomycin- and gentamicin-resistant Enterococcus faecium. At the time of isolation, they were commonly resistant to all clinically useable antimicrobial agents.

MRSA [3] = type: cell-based, Staphylococcus aureus; settings: agents not hydrolysed by staphylococcal β-lactamase
MRSA [4] = type: cell-based, Staphylococcus aureus; settings: GBE 0.00075M [0.15%]
Text: Stored frozen plasma was pooled from five subjects.
Human plasma may bind or otherwise inactivate foreign substances and good activity in plasma is indicative of good in vivo activity.

VRE = test: Antimicrobial plus BTA against VRE (Table 7); type: cell-based, enterococci; settings: +BTA 1.0%
MRSA [5] = test: MIC of methicillin for MRSA isolates grown with glycine or GBE (Table 1); type: cell-based, Staphylococcus aureus; settings: for MIC of methicillin: GBE 0.001M (0.2%)

SMILES: NCC(=O)OCc1ccccc1 [GBE, Glycine Benzyl Ester]
- activity against VRE and MRSA relative to glycylglycine benzyl ester (MRSA [1]): greater activity
- strains tested with complete transformation (target MIC of vancomycin 2 mg/l) ([2]; 0.02 M GBE, Table 5): 100%
- MIC of vancomycin ([2]; ATCC 29212): 1 µg/mL
- MIC of vancomycin ([2]; BBC): 2 µg/mL
- MIC of vancomycin ([2]; E254): 2 µg/mL
- MIC of vancomycin ([2]; E267): 2 µg/mL
- MIC of vancomycin ([2]; E271): 2 µg/mL
- MIC of vancomycin ([2]; E285): 2 µg/mL
- MIC of vancomycin ([2]; E297): 2 µg/mL
- MIC of vancomycin ([2]; GBC): 2 µg/mL
- MIC of vancomycin ([2]; S226): 2 µg/mL
- MIC of vancomycin ([2]; S227): 2 µg/mL
- MIC of vancomycin ([2]; S283): 2 µg/mL
- MIC of vancomycin ([2]; S302): 2 µg/mL
- MIC of vancomycin ([2]; S315): 1 µg/mL
- MIC of vancomycin ([2]; S317): 2 µg/mL
- MIC of vancomycin ([2]; S319): 2 µg/mL
- MIC of vancomycin ([2]; S333): 2 µg/mL
- MIC of vancomycin ([2]; S337): 2 µg/mL
- MIC of vancomycin ([2]; S393): 2 µg/mL
- MIC of vancomycin ([2]; S497): 1 µg/mL
- MIC of vancomycin ([2]; S556): 1 µg/mL
- MIC of vancomycin ([2]; WBC): 2 µg/mL
- sensitivity of MRSA to other β-lactam agents in the presence of GBE (MRSA [3]): sensitive to cephalosporins and other β-lactam agents
- MIC of methicillin (MRSA [4]; 5518 (EMRSA-1), +1% human plasma): 4 µg/mL
- MIC of methicillin (MRSA [4]; 5518 (EMRSA-1), no plasma): 2 µg/mL
- MIC of methicillin (MRSA [4]; L277, +1% human plasma): 8 µg/mL
- MIC of methicillin (MRSA [4]; L277, no plasma): 4 µg/mL
- MIC of methicillin (MRSA [4]; L278, +1% human plasma): 16 µg/mL
- MIC of methicillin (MRSA [4]; L278, no plasma): 8 µg/mL
- MIC of methicillin (MRSA [4]; L279, +1% human plasma): 16 µg/mL
- MIC of methicillin (MRSA [4]; L279, no plasma): 4 µg/mL
- MIC of methicillin (MRSA [4]; L280, +1% human plasma): 8 µg/mL
- MIC of methicillin (MRSA [4]; L280, no plasma): 4 µg/mL
- MIC of methicillin (MRSA [4]; L281, +1% human plasma): 8 µg/mL
- MIC of methicillin (MRSA [4]; L281, no plasma): 4 µg/mL
- MIC of methicillin (MRSA [4]; L282, +1% human plasma): 16 µg/mL
- MIC of methicillin (MRSA [4]; L282, no plasma): 4 µg/mL
- MIC of methicillin (MRSA [4]; L283, +1% human plasma): 16 µg/mL
- MIC of methicillin (MRSA [4]; L283, no plasma): 4 µg/mL
- MIC of methicillin (MRSA [4]; L284, +1% human plasma): 8 µg/mL
- MIC of methicillin (MRSA [4]; L284, no plasma): 2 µg/mL
- MIC of methicillin (MRSA [4]; L285, +1% human plasma): 16 µg/mL
- MIC of methicillin (MRSA [4]; L285, no plasma): 4 µg/mL
- MIC of methicillin (MRSA [4]; L286, +1% human plasma): 8 µg/mL
- MIC of methicillin (MRSA [4]; L286, no plasma): 4 µg/mL
- MIC of methicillin (MRSA [4]; L287, +1% human plasma): 16 µg/mL
- MIC of methicillin (MRSA [4]; L287, no plasma): 4 µg/mL
- MIC of methicillin (MRSA [4]; L288, +1% human plasma): 16 µg/mL
- MIC of methicillin (MRSA [4]; L288, no plasma): 2 µg/mL
- MIC of methicillin (MRSA [4]; L289, +1% human plasma): 16 µg/mL
- MIC of methicillin (MRSA [4]; L289, no plasma): 4 µg/mL
- MIC of methicillin (MRSA [4]; L290, +1% human plasma): 8 µg/mL
- MIC of methicillin (MRSA [4]; L290, no plasma): 4 µg/mL
- MIC of methicillin (MRSA [4]; L291, +1% human plasma): 16 µg/mL
- MIC of methicillin (MRSA [4]; L291, no plasma): 4 µg/mL
- MIC of methicillin (MRSA [4]; L292, +1% human plasma): 32 µg/mL
- MIC of methicillin (MRSA [4]; L292, no plasma): 4 µg/mL
- MIC of methicillin (MRSA [4]; L293, +1% human plasma): 8 µg/mL
- MIC of methicillin (MRSA [4]; L293, no plasma): 2 µg/mL
- MIC of methicillin (MRSA [4]; L294, +1% human plasma): 8 µg/mL
- MIC of methicillin (MRSA [4]; L294, no plasma): 2 µg/mL
- Vancomycin (antimicrobial plus BTA; quantity not named, MIC implied) (VRE): 64 µg/mL
- strains tested with complete transformation (MRSA [5]; 0.02 M glycylbenzyl ester, said of Table 1): 100%
- MIC of methicillin (MRSA [5]; CD40 (EMRSA-1)): 2 µg/mL
- MIC of methicillin (MRSA [5]; DS09 (EMRSA-1)): 2 µg/mL
- MIC of methicillin (MRSA [5]; E15-97 (EMRSA-15)): 2 µg/mL
- MIC of methicillin (MRSA [5]; E16-96 (EMRSA-16)): 2 µg/mL
- MIC of methicillin (MRSA [5]; JF1-32 (EMRSA-1)): 2 µg/mL
- MIC of methicillin (MRSA [5]; L265): 2 µg/mL
- MIC of methicillin (MRSA [5]; L266): 2 µg/mL
- MIC of methicillin (MRSA [5]; L267): 2 µg/mL
- MIC of methicillin (MRSA [5]; L268): 2 µg/mL
- MIC of methicillin (MRSA [5]; L269): 1 µg/mL
- MIC of methicillin (MRSA [5]; L270): 1 µg/mL
- MIC of methicillin (MRSA [5]; L271): 2 µg/mL
- MIC of methicillin (MRSA [5]; L272): 1 µg/mL
- MIC of methicillin (MRSA [5]; L273): 1 µg/mL
- MIC of methicillin (MRSA [5]; L274): 2 µg/mL
- MIC of methicillin (MRSA [5]; L275): 2 µg/mL
- MIC of methicillin (MRSA [5]; L276): 2 µg/mL
- MIC of methicillin (MRSA [5]; L277): 2 µg/mL
- MIC of methicillin (MRSA [5]; L278): 4 µg/mL
- MIC of methicillin (MRSA [5]; L279): 2 µg/mL
- MIC of methicillin (MRSA [5]; L280): 2 µg/mL
- MIC of methicillin (MRSA [5]; L281): 2 µg/mL
- MIC of methicillin (MRSA [5]; L282): 2 µg/mL
- MIC of methicillin (MRSA [5]; L283): 2 µg/mL
- MIC of methicillin (MRSA [5]; L284): 2 µg/mL
- MIC of methicillin (MRSA [5]; L285): 2 µg/mL
- MIC of methicillin (MRSA [5]; L286): 2 µg/mL
- MIC of methicillin (MRSA [5]; L287): 2 µg/mL
- MIC of methicillin (MRSA [5]; L288): 2 µg/mL
- MIC of methicillin (MRSA [5]; L289): 2 µg/mL
- MIC of methicillin (MRSA [5]; L290): 2 µg/mL
- MIC of methicillin (MRSA [5]; L291): 2 µg/mL
- MIC of methicillin (MRSA [5]; L292): 2 µg/mL
- MIC of methicillin (MRSA [5]; L293): 2 µg/mL
- MIC of methicillin (MRSA [5]; L294): 2 µg/mL
- MIC of methicillin (MRSA [5]; MC01 (EMRSA-1)): 2 µg/mL
- MIC of methicillin (MRSA [5]; NCTC 12493): 0.015 µg/mL
- MIC of methicillin (MRSA [5]; PS3-32 (EMRSA-1)): 2 µg/mL
- MIC of methicillin (MRSA [5]; SN31 (EMRSA-1)): 2 µg/mL
- MIC of methicillin (MRSA [5]; ST11 (EMRSA-1)): 2 µg/mL
- MIC of methicillin (MRSA [5]; SW2-32 (EMRSA-1)): 2 µg/mL
- effect on sensitivity to methicillin compared with glycine (MRSA [5]; Table 1): increased sensitivity to methicillin to a much greater extent than glycine
